ChEMBL document CHEMBL4138080, “Improved synthesis and comparative analysis of the tool properties of new and existing D-ring modified (S)-blebbistatin analogs” (Eur J Med Chem, 2017)
In brackets after ≈: the same amount, converted by molar mass.

Key:
[1] = Inhibition of rabbit full length skeletal muscle myosin 2 ATPase activity using Pre-formed rabbit skeletal muscle F-actin filaments and ATP incubated for 1 hr by CytoPhos reagent based ATPase assay; design: species or system Oryctolagus cuniculus
Oryctolagus cuniculus = species on record: Oryctolagus cuniculus; test: Potency index, ratio of (S)-blebbistatin (S)-1 IC50 to compound IC50 for inhibition of rabbit full length skeletal muscle myosin 2 ATPase activity by CytoPhos reagent based ATPase assay
[2] = Aqueous solubility at steady-state in pH 7.4 PBS at 200 uM after 24 hrs by HPLC method; type: physicochemical; settings: for solubility at 24 h, 200 µM: PBS, pH 7.4
[3] = Apparent permeability from apical to basolateral side in human Caco2 cells at 10 uM after 60 mins by HPLC-MS/MS analysis; type: ADME, cell-based; settings: Caco-2
[4] = Apparent permeability from basolateral to apical side in human Caco2 cells at 10 uM after 40 mins by HPLC-MS/MS analysis; type: ADME, cell-based; settings: Caco-2
[5] = Apparent permeability from apical to basolateral side in human Caco2 cells assessed as drug recovery at 10 uM after 60 mins by HPLC-MS/MS analysis; type: ADME, cell-based; settings: Caco-2, read-out: Drug recovery
[6] = Apparent permeability from basolateral to apical side in human Caco2 cells assessed as drug recovery at 10 uM after 40 mins by HPLC-MS/MS analysis; type: ADME, cell-based; settings: Caco-2, read-out: Drug recovery
[7] = Photostability of the compound in PBS/MeOH at 20 uM under blue light irradiation at 488 nm assessed as compound degradation after 30 mins by fluorescence spectroscopic analysis; type: physicochemical; settings: buffer, 0.5 h
[8] = Photostability of the compound in DMSO alone solvent assessed as compound degradation at 100 to 600 uM under irradiation at 390 to 470 nm up to 90 mins by HPLC analysis; type: physicochemical; settings: 1.5 h
[9] = Photostability of the compound in DMSO/H20 (1:1) solvent assessed as half life for compound degradation at 100 to 600 uM under irradiation at 390 to 470 nm by HPLC analysis; type: physicochemical; settings: DMSO/H2O (1:1)
[10] = Photostability of the compound in DMSO/H20 (1:1) solvent assessed as compound degradation at 100 to 600 uM under irradiation at 390 to 470 nm after mins by HPLC analysis; type: physicochemical; settings: DMSO/H2O (1:1); read-out: Drug degradation

IC50 [1] [µM]	Ratio IC50 (Oryctolagus cuniculus)	Papp A→B at 1 h, 10 µM [3] [×10⁻⁶ cm/s]	Papp B→A at 40 min, 10 µM [4] [×10⁻⁶ cm/s]	recovery at 1 h, 10 µM [5] [%]	recovery at 40 min, 10 µM [6] [%]	half-life at up to 600 µM [9] [min]	solubility at 24 h, 200 µM [2] [µM]	Compound	also measured
–	< 0.02	–	–	–	–	–	–	Cc1ccc2c(c1)C(=O)[C@]1(O)CCN(c3cccc(C(=O)O)c3)C1=N2	–
–	0.15	62.7	26.2	79	74	13	186 (≈ 57.2 µg/mL)	Cc1ccc2c(c1)C(=O)[C@]1(O)CCN(c3cccc(N)c3)C1=N2	–
–	0.04	–	–	–	–	–	–	Cc1ccc2c(c1)C(=O)[C@]1(O)CCN(c3cccc(C#N)c3)C1=N2	–
–	0.11	28.5	17.2	49	70	11	193 (≈ 59.5 µg/mL)	Cc1ccc2c(c1)C(=O)[C@]1(O)CCN(c3cccc(O)c3)C1=N2	–
–	0.19	69.4	31.1	85	82	44	> 200	Cc1ccc2c(c1)C(=O)[C@]1(O)CCN(c3ccc(N)cc3)C1=N2	–
–	< 0.02	–	–	–	–	–	–	Cc1ccc2c(c1)C(=O)[C@]1(O)CCN(c3cccc(C(N)=O)c3)C1=N2	–

Second part, the compound before the results:

Compound	IC50 [1] [µM]	Ratio IC50 (Oryctolagus cuniculus)	Papp A→B at 1 h, 10 µM [3] [×10⁻⁶ cm/s]	Papp B→A at 40 min, 10 µM [4] [×10⁻⁶ cm/s]	recovery at 1 h, 10 µM [5] [%]	recovery at 40 min, 10 µM [6] [%]	half-life at up to 600 µM [9] [min]	solubility at 24 h, 200 µM [2] [µM]	also measured
Cc1ccc2c(c1)C(=O)[C@]1(O)CCN(c3ccccc3)C1=N2	0.873 to 2.16	1	60.5	19.2	66	66	14	–	solubility ([2]; buffer, pH 7.4, 24 h, 200 µM): 6.18 µM (≈ 1.81 µg/mL); Stability [7]: Stable; Stability [8]: Stable
Cc1ccc2c(c1)C(=O)[C@]1(O)CCN(c3ccc(OCc4ccccc4)cc3)C1=N2	> 40	< 0.02	–	–	–	–	–	–	–
Cc1ccc2c(c1)C(=O)[C@]1(O)CCN(c3ccc4c(c3)NCC4)C1=N2	7.7	0.11	–	–	–	–	–	–	–
C=CCOc1ccc(N2CC[C@@]3(O)C(=O)c4cc(C)ccc4N=C23)cc1	0.38	2.3	29.7	7.58	32	65	8.8	2.75 (≈ 0.958 µg/mL)	–
Cc1ccc2c(c1)C(=O)[C@]1(O)CCN(c3ccc(O)cc3)C1=N2	5.47	0.16	–	–	–	–	4.7	82.4 (≈ 25.4 µg/mL)	–
C=CC(=O)Nc1cccc(N2CC[C@@]3(O)C(=O)c4cc(C)ccc4N=C23)c1	> 100	< 0.02	–	–	–	–	–	–	–
CCC(=O)Nc1cccc(N2CC[C@@]3(O)C(=O)c4cc(C)ccc4N=C23)c1	> 100	< 0.02	–	–	–	–	–	–	–
C=CC(=O)Oc1cccc(N2CC[C@@]3(O)C(=O)c4cc(C)ccc4N=C23)c1	57.6	0.04	–	–	–	–	–	–	–
Cc1ccc2c(c1)C(=O)[C@]1(O)CCN(c3ccc4ccccc4c3)C1=N2	> 40	< 0.02	–	–	–	–	–	–	–
Cc1ccc2c(c1)C(=O)[C@]1(O)CCN(c3ccc4cc[nH]c4c3)C1=N2	7.2	0.12	–	–	–	–	–	–	–
C=CCOc1cccc(N2CC[C@@]3(O)C(=O)c4cc(C)ccc4N=C23)c1	9.41	0.23	–	–	–	–	15	2.83 (≈ 0.986 µg/mL)	–
C=CCN(CC=C)c1cccc(N2CC[C@@]3(O)C(=O)c4cc(C)ccc4N=C23)c1	> 10.8	–	–	–	–	–	–	–	–
CCC(=O)Oc1cccc(N2CC[C@@]3(O)C(=O)c4cc(C)ccc4N=C23)c1	23.5	0.09	–	–	–	–	–	–	–
Cc1ccc2c(c1)C(=O)[C@]1(O)CCN(c3ccc([N+](=O)[O-])cc3)C1=N2	–	2.5	32.5	2.23	34	72	> 90	31.7 (≈ 10.7 µg/mL)	degraded at up to 600 µM [10]: 33%
